This passage reports IC50, inhibition in vivo and solubility results from ChEMBL document CHEMBL4732174, “Discovery of 6-(7-Nitro-2,1,3-benzoxadiazol-4-ylthio)hexanol Derivatives as Glutathione Transferase Inhibitors with Favorable Selectivity and Tolerated Toxicity” (J Med Chem, 2021).

For data set [1], the target named is Glutathione S-transferase P (Homo sapiens, UniProt P09211). The experiment in a line: Inhibition of GSTP1-1 (unknown origin) using reduced GSH and CDNB as substrate incubated for 10 mins followed by substrate addition by microplate reader analysis.
Data set [2] concerns HUVEC. The experiment in a line: Cytotoxicity against HUVEC assessed as reduction in cell viability incubated for 72 hrs by MTT assay. Format: cell-based. The following applies: Homo sapiens. In general terms: Formazan colour is commonly taken as a measure of viable cells.
The target of data set [3] is T1, Glutathione S-transferase Mu 2 (Homo sapiens, UniProt P28161).
T1 sequence (P28161 whole entry): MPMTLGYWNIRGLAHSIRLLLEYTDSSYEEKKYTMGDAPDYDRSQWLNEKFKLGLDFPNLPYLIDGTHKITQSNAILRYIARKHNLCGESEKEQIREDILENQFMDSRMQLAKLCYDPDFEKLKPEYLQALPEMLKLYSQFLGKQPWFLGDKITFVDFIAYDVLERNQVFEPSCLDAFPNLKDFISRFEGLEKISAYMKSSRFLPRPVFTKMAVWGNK
As to the kind of experiment: Inhibition of GSTM2-2 (unknown origin) using reduced GSH and CDNB as substrate incubated for 10 mins followed by substrate addition by microplate reader analysis.

Data set [4] is described as follows: Antiproliferative activity against […] B16 cells assessed as inhibition of cell proliferation incubated for 72 hrs by MTT assay. The settings on record: B16, 72 h. The format is functional, cell-based.
For data set [5], the system named is L02. As to the kind of experiment: Cytotoxicity against human L02 cells assessed as reduction in cell viability incubated for 72 hrs by MTT assay. The format is cell-based. The settings on record: L02, 72 h.
Data set [6] has as its system HOS. The experiment in a line: Antiproliferative activity against human HOS cells assessed as inhibition of cell proliferation incubated for 72 hrs by MTT assay. Format: functional, cell-based.
Data set [7] deals with 143B. The experiment in a line: Antiproliferative activity against human 143B cells assessed as inhibition of cell proliferation incubated for 72 hrs by MTT assay. The format is functional, cell-based.
The test system of data set [8] is A549. The experiment in a line: Antiproliferative activity against human A549 cells assessed as inhibition of cell proliferation incubated for 72 hrs by MTT assay. The format is functional, cell-based. The settings on record: A549, 72 h.
Data set [9] relates to 143B. The experiment in a line: Antitumor activity against human 143B cells xenografted in BALB/c nude mouse assessed as tumor growth inhibition at 5 mg/kg, po administered once daily for 28 consecutive days relative to control. Format: functional. The settings on record: 672 h, time 28 day, read-out: TGI. (Xenograft models place foreign cells or tissue in a host animal.)

Data set [10] can be described thus: Water solubility of the compound measured by UV-Visible spectral analysis. The format is physicochemical. The settings on record: buffer.

Sequence of Glutathione S-transferase P (P09211 whole entry): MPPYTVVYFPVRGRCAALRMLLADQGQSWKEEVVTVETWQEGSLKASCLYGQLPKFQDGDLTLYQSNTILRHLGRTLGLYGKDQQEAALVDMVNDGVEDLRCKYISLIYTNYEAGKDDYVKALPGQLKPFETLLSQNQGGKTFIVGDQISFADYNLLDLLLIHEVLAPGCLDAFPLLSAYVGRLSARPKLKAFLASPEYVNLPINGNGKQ

With `Cc1ccc(NC(=O)CCC(=O)OCCCCCCSc2ccc([N+](=O)[O-])c3nonc23)cc1`, the concentration for half-maximal inhibition (IC50) (commonly the concentration that inhibits the measured activity by half) was found to be 6800 nM in data set [1]; 2340 nM in data set [2]; 390 nM in data set [3]; 1950 nM in data set [4]; 7320 nM in data set [5]; 3340 nM in data set [6]. In addition, the values for the 50% inhibitory concentration (IC50) in data set [7] and in data set [8] were 3250 nM and 5240 nM, respectively.
For `O=C(CCC(=O)OCCCCCCSc1ccc([N+](=O)[O-])c2nonc12)Nc1ccccc1F`, the IC50 in data set [1] was found to be 9890 nM; in data set [2] it was 840 nM; in data set [3], 350 nM; in data set [4], 2120 nM; in data set [5], 4270 nM; in data set [6], 2350 nM. In addition, the values for the concentration for half-maximal inhibition (IC50) in [7] and in [8] were 3030 nM and 2440 nM, respectively.
For `Cc1ccccc1NC(=O)CCC(=O)OCCCCCCSc1ccc([N+](=O)[O-])c2nonc12`, the half-maximal inhibitory concentration (IC50) in data set [1] was 4100 nM; in [2] it was 1410 nM; in data set [3] it was 440 nM; in [4], 6490 nM; in data set [5], 9490 nM; in data set [6], 4020 nM. The IC50 in data set [7] came to 4660 nM; in data set [8] it was 4200 nM.
As to `O=[N+]([O-])c1ccc(SCCCCCCO)c2nonc12`, the half-inhibitory concentration (IC50) worked out at 20 nM in [3]; 1350 nM in data set [4]; 1240 nM in [6]; 4080 nM in data set [7]; 2880 nM in data set [8]. The inhibition in vivo at 5 mg/kg in data set [9] turned out to be 38.6%.
As to `CCN(CC)CCCNC(=O)CCC(=O)OCCCCCCSc1ccc([N+](=O)[O-])c2nonc12`, the half-inhibitory concentration (IC50) in [1] came out at 9550 nM; in data set [2], 2950 nM; in data set [3] it was 440 nM; in [4], 2940 nM; in data set [5], 6770 nM; in [6], 9060 nM. The values for the half-maximal inhibitory concentration (IC50) in data set [7] and in [8] were 3440 nM and 2570 nM, respectively. The solubility entry in data set [10] was “Soluble”.
As for `O=C(CCC(=O)OCCCCCCSc1ccc([N+](=O)[O-])c2nonc12)Nc1ccc(Br)cc1`, the IC50 in data set [1] amounted to 5090 nM; in data set [2], 1610 nM; in data set [3], 32000 nM; in data set [4], 2640 nM; in [5], 4330 nM; in data set [6] it was 2160 nM. Moreover, the IC50 in data set [7] was found to be 2710 nM; in data set [8] it was 3340 nM.
For `O=C(CCC(=O)OCCCCCCSc1ccc([N+](=O)[O-])c2nonc12)Nc1ccc(F)cc1`, the half-maximal inhibitory concentration (IC50) stood at 8570 nM in data set [1]; 1740 nM in [2]; 320 nM in [3]; 2020 nM in [4]; 6460 nM in data set [5]; 2080 nM in [6]. Also, the half-maximal inhibitory concentration (IC50) in [7] is 2500 nM; in data set [8], 6300 nM.
For the compound `O=C(O)CCC(=O)OCCCCCCSc1ccc([N+](=O)[O-])c2nonc12`, the IC50 in [1] came to 530 nM; in data set [2], 740 nM; in data set [3] it was 160 nM; in data set [4], 3650 nM; in [5] it was 1890 nM; in [6] it was 8740 nM. Also, the half-maximal inhibitory concentration (IC50) in data set [7] was determined as 2830 nM; in [8], 3640 nM.
For `O=C(CCC(=O)OCCCCCCSc1ccc([N+](=O)[O-])c2nonc12)Nc1cccc(Cl)c1`, the IC50 in [1] is 28800 nM; in [2] it was 1090 nM; in data set [3] it was 1100 nM; in data set [4], 3110 nM; in data set [5], 6930 nM; in data set [6], 1920 nM. In addition, the IC50 in data set [7] stood at 2890 nM; in [8] it was 5290 nM.
As for `O=C(CCC(=O)OCCCCCCSc1ccc([N+](=O)[O-])c2nonc12)Nc1ccc(C(F)(F)F)cc1`, the IC50 was found to be 5050 nM in data set [1]; 1390 nM in [2]; 90 nM in data set [3]; 1120 nM in data set [4]; 5010 nM in data set [5]; 3200 nM in [6]. Moreover, the IC50 in data set [7] was determined as 2100 nM; in [8], 4020 nM.
Turning to `O=C(CCC(=O)OCCCCCCSc1ccc([N+](=O)[O-])c2nonc12)Nc1ccccc1`, the IC50 in data set [1] was determined as 10200 nM; in data set [2], 2490 nM; in [3], 700 nM; in data set [4], 1260 nM; in [5], 6490 nM; in [6], 2120 nM. The figures for the IC50 in data set [7] and in data set [8] were 3850 nM and 1960 nM, respectively.
For the compound `O=C(CCC(=O)OCCCCCCSc1ccc([N+](=O)[O-])c2nonc12)NCCN1CCOCC1`, the half-inhibitory concentration (IC50) in data set [1] is 35000 nM; in data set [2], 1070 nM; in data set [3] it was 100 nM; in data set [4], 1800 nM; in data set [5], 3010 nM; in data set [6] it was 1810 nM. The IC50 in data set [7] came out at 2820 nM; in [8] it was 2150 nM. The solubility result in [10] was “Soluble”.
As for `CN(C)CCNC(=O)CCC(=O)OCCCCCCSc1ccc([N+](=O)[O-])c2nonc12`, the half-inhibitory concentration (IC50) came to 540 nM in data set [1]; 2160 nM in data set [2]; 160 nM in [3]; 1140 nM in data set [4]; 5980 nM in data set [5]; 5020 nM in data set [6]. Further, the IC50 in data set [7] is 2190 nM; in data set [8], 5550 nM. Moreover, the solubility result in data set [10] is “Soluble”.
With `O=C(CCC(=O)OCCCCCCSc1ccc([N+](=O)[O-])c2nonc12)Nc1ccc(F)c(Cl)c1`, the IC50 stood at 9850 nM in data set [1]; 2320 nM in data set [2]; 470 nM in data set [3]; 4170 nM in [4]; 4570 nM in [5]; 2800 nM in [6]. Besides, the IC50 amounted to 2990 nM in data set [7] and 3210 nM in data set [8].
For `COc1ccc(NC(=O)CCC(=O)OCCCCCCSc2ccc([N+](=O)[O-])c3nonc23)cc1OC`, the IC50 in data set [1] amounted to 6470 nM; in data set [2] it was 870 nM; in data set [3], 360 nM; in data set [4], 2350 nM; in data set [5], 4100 nM; in data set [6], 1390 nM. Besides, the values for the half-inhibitory concentration (IC50) in data set [7] and in [8] were 2770 nM and 3890 nM, respectively.
`O=C(CCC(=O)N1CCCCC1)OCCCCCCSc1ccc([N+](=O)[O-])c2nonc12`: the IC50 is 500 nM in data set [1]; 1990 nM in data set [2]; 110 nM in data set [3]; 860 nM in [4]; 3970 nM in data set [5]; 1790 nM in data set [6]. Besides, the results for the half-maximal inhibitory concentration (IC50) in data set [7] and in [8] were 1900 nM and 2510 nM, respectively.
On to `O=C(CCC(=O)OCCCCCCSc1ccc([N+](=O)[O-])c2nonc12)NCCN1CCCC1`, for which the IC50 in [1] is 460 nM; in data set [2], 6070 nM; in [3], 200 nM; in [4], 3500 nM; in data set [5] it was 6580 nM; in data set [6], 3300 nM. Also, the results for the half-maximal inhibitory concentration (IC50) in data set [7] and in [8] were 5580 nM and 3240 nM, respectively. Besides, the solubility result in data set [10] was “Soluble”.
Turning to `COc1ccc(NC(=O)CCC(=O)OCCCCCCSc2ccc([N+](=O)[O-])c3nonc23)cc1`, the concentration for half-maximal inhibition (IC50) in [1] came out at 420 nM; in data set [2] it was 1590 nM; in data set [3], 130 nM; in data set [4] it was 2870 nM; in data set [5], 8170 nM; in data set [6], 1800 nM. Also, the IC50 was 3060 nM in data set [7] and 6480 nM in data set [8].
As for `O=C(CCC(=O)N1CCOCC1)OCCCCCCSc1ccc([N+](=O)[O-])c2nonc12`, the half-maximal inhibitory concentration (IC50) is 330 nM in data set [1]; 5340 nM in data set [2]; 170 nM in data set [3]; 820 nM in data set [4]; 3240 nM in data set [5]; 1010 nM in data set [6]. The results for the IC50 in data set [7] and in data set [8] were 1530 nM and 1670 nM, respectively.
With `O=C(CCC(=O)OCCCCCCSc1ccc([N+](=O)[O-])c2nonc12)Nc1ccccc1Cl`, the half-maximal inhibitory concentration (IC50) in data set [1] was determined as 15500 nM; in data set [2], 2950 nM; in data set [3], 330 nM; in data set [4], 2390 nM; in data set [5], 5850 nM; in [7], 2430 nM. In addition, the concentration for half-maximal inhibition (IC50) in data set [8] was 2750 nM.
For `COc1ccccc1NC(=O)CCC(=O)OCCCCCCSc1ccc([N+](=O)[O-])c2nonc12`, the IC50 in data set [1] is 4050 nM; in [2], 1610 nM; in data set [3], 280 nM; in data set [4] it was 1380 nM; in data set [5], 4490 nM; in data set [6] it was 2850 nM. In addition, the half-inhibitory concentration (IC50) came to 2120 nM in data set [7] and 1870 nM in [8].
